Test results: US20260364184A1, “COMPOUND BASED ON OXOISOINDOLINYL-SUBSTITUTED TETRAHYDROPYRIMIDINE-DIONE AND USE THEREOF” (GLUETACS THERAPEUTICS (SHANGHAI) CO., LTD., priority 2023, published 2026)

What was measured:
[1] = test system: Human Acute T Lymphoblastic Leukemia Cells (Molt-4); experiment: Inhibition of Molt-4 cell proliferation (CellTiter luminescent viability); type: cell-based; conditions: Homo sapiens, MOLT-4, 96 h, Table IH3, BCL-2 inhibitor-based, 96 hours; for inhibition at 0.01 µM: Molt-4, 10 nM, read-out: Inhibition Rate at 10 nM (%); for inhibition at 0.5 µM: Molt-4, 500 nM, read-out: Inhibition Rate at 500 nM (%)
[2] = test system: Human acute lymphocytic leukemia T lymphocytes cell line (CCRF-CEM); experiment: Inhibition of CCRF-CEM cell proliferation (CellTiter luminescent viability); type: cell-based; conditions: Homo sapiens, 96 h, Table IH2, BCL-2 inhibitor-based; for inhibition at 0.01 µM: 10 nM, read-out: Inhibition Rate at 10 nM (%); for inhibition at 0.5 µM: 500 nM, read-out: Inhibition Rate at 500 nM (%)
[3] = test system: Human prostate cancer cell line (NCI-H358); experiment: Inhibition of NCI-H358 cell proliferation (CellTiter luminescent viability); conditions: Table IH1, BCL-2 inhibitor-based, 96 hours; for inhibition at 0.01 µM: NCI-H358, 10 nM, read-out: Inhibition Rate at 10 nM (%); for inhibition at 0.5 µM: NCI-H358, 500 nM, read-out: Inhibition Rate at 500 nM (%)
Experimental: (§1) The tumor cells used herein were cultured in a cell culture medium listed in table 3 at 37 °C in an incubator with 5% CO2. Prior to experimentation, all cell lines used were correctly identified by STR profiling, and tested negative for mycoplasma contamination using a mycoplasma detection kit through routine screenings.
(§2) The IC50 values of the compounds of the present disclosure (including the compounds in Table 1, Table 2, and Examples 1-468) were determined using the CellTiter-Meiluncell Luminescent Cell Viability Assay Kit from Dalian Meilun Biotech Co., Ltd. The detailed procedure is as follows: Tumor cells were seeded in 96-well cell culture plates at the densities specified in Table 4. On the following day, the test compounds of the present disclosure were subjected to serial dilution. The dilution can be performed according to one of the following two methods: • (1) The first dilution method: The test compounds of the present disclosure (including the compounds in Table 1, Table 2, and Examples 1-468) were subjected to 5-fold serial dilutions starting from a highest concentration of 2000 μM, resulting in a total of 9 concentrations from high to low (2000, 400, 80, 16, 3.2, 0.64, 0.128, 0.0256, 0.00512 μM). Subsequently, 0.5 μL of the test compound dilution was transferred into the 96-well plate containing the cells, with each well containing 100 μL of cell culture medium. […] Into the 96-well plate, the diluted test compounds and corresponding detection reagents were added, resulting in final test compound concentrations of 500 nM and 10 nM, respectively. The experimental procedure is described below using the diluted 2 μM test compound as an example.
(§3) 0.5 μL of the aforementioned diluted compound of the present disclosure (including the compounds in Table 1, Table 2, and Examples 1-468) was added to the seeded cells in 100 μL of medium, yielding a final test compound concentration of 10 nM. After the cells were treated with the compounds of the present disclosure for a specified period, the cell viability assay reagent was added to the culture medium according to the kit's instructions to determine cell viability. […] All controls were treated using the same procedure as the compounds of the present disclosure. The growth inhibition curves for the compounds of the present disclosure were plotted using Prism GraphPad software, and the IC50 values were calculated therefrom.

BRM = biological target: T1, BRM (Homo sapiens, UniProt P51531); experiment: Western blot degradation of BRM (SMARCA2); type: cell-based; conditions: Molt-4 Cell; 24 hours
T1 construct: expression of target proteins in cells; endogenous in cells
Experimental: (§4) Conventional Western blot assay was performed to evaluate the effects of the compounds of the present disclosure on the expression of target proteins in cells.
(§5) (1) Cell Seeding and Protein Harvesting: The selected cells were processed according to the cell seeding procedure and protein harvesting procedure in Table II-2.
(§6) (2) To the collected supernatant, 5×SDS sample loading buffer was added, followed by denaturation at 95 °C for 5 minutes. The denatured samples were then separated by SDS-PAGE electrophoresis on a polyacrylamide gel. Proteins were transferred to a nitrocellulose membrane (0.45 μm NC membrane), blocked with blocking buffer at room temperature for 1 hour, and subjected to antibody incubation and development procedures according to the antibody manufacturer's instructions (Cell Signaling Technology).
(§7) Half-Maximal Degradation Concentration value (the drug concentration required for degrading proteins by 50%, abbreviated as DC50) reads method: comparing the grayscale values of Western blot bands from drug-treated samples with those from blank DMSO-treated controls, and identifying the drug concentration range at which the grayscale value is half that of the DMSO-treated control bands.
(§8) DC50 values can be calculated using ImageJ software to measure grayscale values of Western blot bands from drug-treated samples. The concentration-response curve is fitted to estimate the drug concentration corresponding to half the grayscale value.
(§9) Target protein remaining (%) refers to the percentage of target protein remaining in cells after treatment with protein degrader compounds.
(§10) Calculation method for target protein remaining (%): Use ImageJ software to measure grayscale values of Western blot bands from drug (protein degrader)-treated samples. The grayscale value of drug-treated bands is divided by that of internal control protein bands, and the resulting quotient is normalized to obtain the relative percentage of remaining target protein after protein degrader treatment.
(§11) Target protein degradation rate (%)=1−target protein remaining (%).

BRG1 = biological target: T2, BRG1 (Homo sapiens, UniProt P51532); experiment: Western blot degradation of BRG1 (SMARCA4); type: cell-based; conditions: Molt-4 Cell; 24 hours
T2 construct: expression of target proteins in cells; endogenous in cells
Experimental: as §4, §5, §6, §7, §8, §9, §10, §11

[4] = test system: Human neuroblastoma cell line (SK-N-AS); experiment: Inhibition of SK-N-AS cell proliferation (CellTiter luminescent viability); type: cell-based; conditions: Table IK1, AKT inhibitor-based, 96 hours; for inhibition at 0.01 µM: 10 nM, read-out: Inhibition Rate at 10 nM (%); for inhibition at 0.5 µM: 500 nM, read-out: Inhibition Rate at 500 nM (%)
Experimental: as §1, §2, §3

AKT = experiment: Western blot degradation of AKT; type: cell-based; conditions: hPBMC Cell; 24 hours
Experimental: as §4, §5, §6, §7, §8, §9, §10, §11

[5] = biological target: T3, human Cereblon WT GST-tagged protein (CRBN) (Homo sapiens, UniProt Q96SW2); experiment: CRBN binding by HTRF (Cereblon binding kit)
T3 construct: purchased CISBIO 64BDCRBNPEH
How it was run: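 GST-tagged human Cereblon WT was incubated 3 h at room temperature with compound, thalidomide-Re tracer and Eu anti-GST antibody. Final compound concentrations were 10 to 0.00064 µM (7 points) or 2 and 0.5 µM. Inhibition rate was calculated from HTRF 665/620 nm ratios versus solvent and blank controls.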

T1 sequence (P51531 whole entry): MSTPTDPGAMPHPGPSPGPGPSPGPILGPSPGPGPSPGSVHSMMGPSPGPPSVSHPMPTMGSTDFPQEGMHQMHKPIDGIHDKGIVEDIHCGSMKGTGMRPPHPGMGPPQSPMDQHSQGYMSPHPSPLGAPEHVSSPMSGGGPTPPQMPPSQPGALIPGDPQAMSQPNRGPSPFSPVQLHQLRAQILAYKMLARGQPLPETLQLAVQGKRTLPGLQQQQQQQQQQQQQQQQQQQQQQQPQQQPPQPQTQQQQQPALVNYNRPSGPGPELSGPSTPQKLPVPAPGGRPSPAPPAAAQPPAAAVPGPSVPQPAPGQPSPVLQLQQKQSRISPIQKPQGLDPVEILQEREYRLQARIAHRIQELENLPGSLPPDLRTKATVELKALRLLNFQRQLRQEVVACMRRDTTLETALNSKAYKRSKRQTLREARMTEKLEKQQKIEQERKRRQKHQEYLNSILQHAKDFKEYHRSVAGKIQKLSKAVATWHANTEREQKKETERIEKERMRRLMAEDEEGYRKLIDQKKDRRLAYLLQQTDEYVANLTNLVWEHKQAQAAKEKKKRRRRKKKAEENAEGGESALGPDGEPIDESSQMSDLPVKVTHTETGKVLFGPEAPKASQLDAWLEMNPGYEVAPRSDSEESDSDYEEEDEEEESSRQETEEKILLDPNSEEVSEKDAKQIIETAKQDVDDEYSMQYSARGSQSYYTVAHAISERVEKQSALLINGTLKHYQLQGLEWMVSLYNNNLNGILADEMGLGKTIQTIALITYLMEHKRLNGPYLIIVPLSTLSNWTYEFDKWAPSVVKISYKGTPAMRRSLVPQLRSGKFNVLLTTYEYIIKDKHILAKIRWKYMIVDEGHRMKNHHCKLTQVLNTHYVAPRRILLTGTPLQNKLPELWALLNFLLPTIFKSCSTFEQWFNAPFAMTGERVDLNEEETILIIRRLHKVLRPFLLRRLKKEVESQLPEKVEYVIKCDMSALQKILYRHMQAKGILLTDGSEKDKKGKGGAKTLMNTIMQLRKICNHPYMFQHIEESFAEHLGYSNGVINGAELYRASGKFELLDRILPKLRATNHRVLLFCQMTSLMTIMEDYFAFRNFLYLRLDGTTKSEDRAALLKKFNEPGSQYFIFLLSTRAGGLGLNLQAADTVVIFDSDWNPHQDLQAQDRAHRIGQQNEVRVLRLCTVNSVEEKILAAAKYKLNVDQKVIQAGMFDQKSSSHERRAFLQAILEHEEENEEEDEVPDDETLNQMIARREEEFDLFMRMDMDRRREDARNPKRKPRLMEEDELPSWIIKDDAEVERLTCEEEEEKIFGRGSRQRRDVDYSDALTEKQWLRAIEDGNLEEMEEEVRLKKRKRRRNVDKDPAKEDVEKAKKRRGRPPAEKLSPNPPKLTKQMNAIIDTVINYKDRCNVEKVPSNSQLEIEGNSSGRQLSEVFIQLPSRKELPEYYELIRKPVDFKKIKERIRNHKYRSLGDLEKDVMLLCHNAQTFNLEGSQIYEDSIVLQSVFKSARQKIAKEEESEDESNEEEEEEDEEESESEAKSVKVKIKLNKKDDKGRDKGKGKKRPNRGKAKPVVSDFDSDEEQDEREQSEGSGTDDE
T3 sequence (Q96SW2 whole entry): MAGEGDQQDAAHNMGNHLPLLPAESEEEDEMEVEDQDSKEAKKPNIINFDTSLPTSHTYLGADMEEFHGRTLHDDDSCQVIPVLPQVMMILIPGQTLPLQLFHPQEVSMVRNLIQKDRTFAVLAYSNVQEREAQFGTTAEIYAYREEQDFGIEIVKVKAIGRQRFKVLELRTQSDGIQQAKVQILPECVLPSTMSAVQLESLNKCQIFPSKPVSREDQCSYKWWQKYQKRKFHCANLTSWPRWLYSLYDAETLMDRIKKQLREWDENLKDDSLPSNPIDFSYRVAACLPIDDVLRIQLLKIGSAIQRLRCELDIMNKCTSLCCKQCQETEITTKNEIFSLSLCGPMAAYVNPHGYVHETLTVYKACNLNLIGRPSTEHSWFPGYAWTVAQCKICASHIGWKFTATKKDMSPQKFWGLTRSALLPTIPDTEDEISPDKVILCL
T2 sequence (P51532 whole entry): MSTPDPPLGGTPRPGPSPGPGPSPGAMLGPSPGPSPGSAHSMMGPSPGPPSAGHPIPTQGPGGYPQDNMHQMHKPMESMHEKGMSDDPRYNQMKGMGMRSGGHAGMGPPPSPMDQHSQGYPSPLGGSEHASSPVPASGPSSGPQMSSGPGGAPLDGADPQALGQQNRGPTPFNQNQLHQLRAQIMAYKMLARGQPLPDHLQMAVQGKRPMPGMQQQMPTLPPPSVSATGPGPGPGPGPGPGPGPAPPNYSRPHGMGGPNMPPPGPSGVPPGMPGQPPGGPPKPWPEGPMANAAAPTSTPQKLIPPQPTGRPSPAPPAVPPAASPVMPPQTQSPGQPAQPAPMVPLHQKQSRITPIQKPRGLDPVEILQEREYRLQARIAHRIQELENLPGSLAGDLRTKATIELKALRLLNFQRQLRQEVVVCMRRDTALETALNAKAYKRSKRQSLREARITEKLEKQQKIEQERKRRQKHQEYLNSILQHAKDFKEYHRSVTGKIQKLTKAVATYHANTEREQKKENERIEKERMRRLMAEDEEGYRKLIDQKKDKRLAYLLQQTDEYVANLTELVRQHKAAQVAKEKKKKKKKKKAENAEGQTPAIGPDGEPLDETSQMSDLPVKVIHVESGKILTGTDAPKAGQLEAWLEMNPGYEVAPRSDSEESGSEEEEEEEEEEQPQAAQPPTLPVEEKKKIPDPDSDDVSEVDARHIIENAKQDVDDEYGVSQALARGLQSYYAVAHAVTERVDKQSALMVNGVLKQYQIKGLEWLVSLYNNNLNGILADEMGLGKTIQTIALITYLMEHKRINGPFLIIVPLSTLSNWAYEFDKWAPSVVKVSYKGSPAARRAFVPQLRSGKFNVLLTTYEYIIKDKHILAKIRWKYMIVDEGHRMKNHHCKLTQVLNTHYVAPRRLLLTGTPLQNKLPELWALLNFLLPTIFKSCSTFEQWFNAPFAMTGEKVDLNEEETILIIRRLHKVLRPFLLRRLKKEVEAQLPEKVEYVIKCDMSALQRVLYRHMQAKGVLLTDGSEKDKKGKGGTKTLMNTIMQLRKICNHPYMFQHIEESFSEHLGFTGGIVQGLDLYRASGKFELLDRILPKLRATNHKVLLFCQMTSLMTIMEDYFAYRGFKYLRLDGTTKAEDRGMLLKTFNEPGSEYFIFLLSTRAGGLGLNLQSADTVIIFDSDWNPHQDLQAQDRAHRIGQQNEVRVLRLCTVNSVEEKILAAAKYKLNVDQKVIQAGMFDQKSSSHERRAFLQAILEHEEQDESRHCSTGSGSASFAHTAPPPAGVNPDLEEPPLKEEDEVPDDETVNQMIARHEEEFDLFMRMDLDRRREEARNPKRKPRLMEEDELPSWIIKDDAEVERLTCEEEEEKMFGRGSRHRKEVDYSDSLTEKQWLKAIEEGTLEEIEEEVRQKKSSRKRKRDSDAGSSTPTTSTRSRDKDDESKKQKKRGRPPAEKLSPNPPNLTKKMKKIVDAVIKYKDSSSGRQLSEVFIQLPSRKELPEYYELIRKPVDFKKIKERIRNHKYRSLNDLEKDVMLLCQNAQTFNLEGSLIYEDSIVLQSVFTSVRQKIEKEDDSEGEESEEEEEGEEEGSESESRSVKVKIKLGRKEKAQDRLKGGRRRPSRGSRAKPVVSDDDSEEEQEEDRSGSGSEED

Q: What does the source list for `CC1(C)CCC(CN2CCN(c3ccc(C(=O)NS(=O)(=O)c4ccc(NCC5CCOCC5)c([N+](=O)[O-])c4)c(Oc4cnc5[nH]ccc5c4)c3)CC2)=C(c2ccc(Cl)cc2)C1` [ABT-199, Venetoclax, reference compound]?
A: inhibition at 0.01 µM [1]: -5 to 0%; inhibition at 0.5 µM [1]: 30 to 40%; inhibition at 0.01 µM [2]: -5 to 0%; inhibition at 0.5 µM [2]: -5 to 0%; inhibition at 0.01 µM [3]: 5 to 10%; inhibition at 0.5 µM [3]: 5 to 10%

Q: What does the source list for `Nc1nnc(-c2ccccc2O)cc1N1CCN(Cc2ccc3c(c2)CN(N2CCC(=O)NC2=O)C3=O)CC1` [GT-04952, 1-(5-((4-(3-amino-6-(2-hydroxyphenyl)pyridazin-4-yl)piperazin-1-yl)methyl)-1-oxoisoindolin-2-yl)dihydropyrimidine-2,4 (1H,3H)-dione]?
A: Degradation of substrate protein BRM (substrate protein remaining %) (BRM): A (0%≤substrate protein remaining %≤80%); Degradation of substrate protein BRG1 (substrate protein remaining %) (BRG1): A (0%≤substrate protein remaining %≤80%)

Q: Which results are given for `Nc1nnc(-c2ccccc2O)cc1N1CCN(CC2CCN(c3ccc4c(c3)C(=O)N(N3CCC(=O)NC3=O)C4=O)CC2)CC1` [GT-04954, 5-(4-((4-(3-amino-6-(2-hydroxyphenyl)pyridazin-4-yl)piperazin-1-yl)methyl)piperidin-1-yl)-2-(2,4-dioxotetrahydropyrimidin-1(2H)-yl)isoindoline-1,3-dione]?
A: Degradation of substrate protein BRM (substrate protein remaining %) (BRM): A (0%≤substrate protein remaining %≤80%); Degradation of substrate protein BRG1 (substrate protein remaining %) (BRG1): A (0%≤substrate protein remaining %≤80%)

Q: For `CC1(C)CCC(c2ccc(Cl)cc2)=C(CN2CCN(c3ccc(C(=O)NS(=O)(=O)c4ccc(N[C@H](CCN5CC6CCC(C5)N6Cc5ccc6c(c5)CN(N5CCC(=O)NC5=O)C6=O)CSc5ccccc5)c(S(=O)(=O)C(F)(F)F)c4)cc3)CC2)C1` [GT-07813, 4-(4-((4′-chloro-4,4-dimethyl-3,4,5,6-tetrahydro-[1,1′-biphenyl]-2-yl)methyl)piperazin-1-yl)-N-((4-(((2R)-4-(8-((2-(2,4-dioxotetrahydropyrimidin-1(2H)-yl)-1-oxoisoindolin-5-yl)methyl)-3,8-diazabicyclo[3.2.1]octan-3-yl)-1-(phenylthio)butan-2-yl)amino)-3-((trifluoromethyl)sulfonyl)phenyl)sulfonyl)benzamide], which inhibition at 0.01 µM [1] is on record?
A: Its inhibition at 0.01 µM is 10 to 15%.

Q: What about the inhibition at 0.5 µM [1] of the same molecule?
A: Its inhibition at 0.5 µM is 80 to 100%.

Q: And the inhibition at 0.01 µM [2]?
A: Its inhibition at 0.01 µM is 5 to 10%.

Q: And the inhibition at 0.5 µM [2]?
A: The inhibition at 0.5 µM was 60 to 70%.

Q: And the inhibition at 0.01 µM [3]?
A: The inhibition at 0.01 µM was 15 to 20%.

Q: And the inhibition at 0.5 µM [3]?
A: Its inhibition at 0.5 µM is 20 to 30%.

Q: For `Cn1ncc(Cl)c1-c1cc(C(=O)N[C@H](CNCc2ccc3c(c2)CN(N2CCC(=O)NC2=O)C3=O)Cc2ccc(F)c(F)c2)oc1Cl` [GT-08574, (S)-5-chloro-4-(4-chloro-1-methyl-1H-pyrazol-5-yl)-N-(1-(3,4-difluorophenyl)-3-(((2-(2,4-dioxotetrahydropyrimidin-1(2H)-yl)-1-oxoisoindolin-5-yl)methyl)amino)propan-2-yl) furan-2-carboxamide], which inhibition at 0.01 µM [4] is on record?
A: Its inhibition at 0.01 µM is 5 to 10%.

Q: And the inhibition at 0.5 µM [4]?
A: The inhibition at 0.5 µM was 20 to 30%.

Q: And the “Degradation of substrate protein AKT (substrate protein remaining %)” value (AKT)?
A: Its value is “A (0%≤substrate protein remaining %≤80%)”.

Q: How did the inhibition at 0.01 µM [4] turn out when `Cn1ncc(Cl)c1-c1cc(C(=O)N[C@@H](Cc2cccc(F)c2)CN2CCN(Cc3ccc4c(c3)CN(N3CCC(=O)NC3=O)C4=O)CC2)sc1Cl` [GT-08576, (S)-5-chloro-4-(4-chloro-1-methyl-1H-pyrazol-5-yl)-N-(1-(4-((2-(2,4-dioxotetrahydropyrimidin-1(2H)-yl)-1-oxoisoindolin-5-yl)methyl)piperazin-1-yl)-3-(3-fluorophenyl)propan-2-yl)thiophene-2-carboxamide] was run?
A: The inhibition at 0.01 µM was 15 to 20%.

Q: What about the inhibition at 0.5 µM [4] of the same molecule?
A: The inhibition at 0.5 µM was 20 to 30%.

Q: What about the “Degradation of substrate protein AKT (substrate protein remaining %)” value (AKT) of the same molecule?
A: Its value is “A (0%≤substrate protein remaining %≤80%)”.

Q: Which “Degradation of substrate protein AKT (substrate protein remaining %)” value (AKT) does the source give for `Cn1ncc(Cl)c1-c1cc(C(=O)N[C@H](CNCC2CCN(c3ccc4c(c3)C(=O)N(N3CCC(=O)NC3=O)C4=O)CC2)Cc2cccc(F)c2)sc1Cl` [GT-08582, (S)-5-chloro-4-(4-chloro-1-methyl-1H-pyrazol-5-yl)-N-(1-(((1-(2-(2,4-dioxotetrahydropyrimidin-1(2H)-yl)-1,3-dioxoisoindolin-5-yl)piperidin-4-yl)methyl)amino)-3-(3-fluorophenyl)propan-2-yl)thiophene-2-carboxamide] here?
A: The value was “A (0%≤substrate protein remaining %≤80%)”.

Q: How did the “Degradation of substrate protein AKT (substrate protein remaining %)” value (AKT) turn out when `Nc1ncccc1-c1nc2ccc(-c3ccccc3)nc2n1-c1ccc(C2(NCC3CCN(c4ccc5c(c4)C(=O)N(N4CCC(=O)NC4=O)C5=O)CC3)CCC2)cc1` [GT-08583, 5-(4-(((1-(4-(2-(2-aminopyridin-3-yl)-5-phenyl-3H-imidazo[4,5-b]pyridin-3-yl)phenyl)cyclobutyl)amino)methyl)piperidin-1-yl)-2-(2,4-dioxotetrahydropyrimidin-1(2H)-yl)isoindoline-1,3-dione] was run?
A: Its value is “A (0%≤substrate protein remaining %≤80%)”.

Q: Which results are given for `Cn1ncc(Cl)c1-c1cc(C(=O)N[C@H](CNCC2CCN(c3ccc4c(c3)C(=O)N(N3CCC(=O)NC3=O)C4=O)CC2)Cc2ccc(F)c(F)c2)oc1Cl` [GT-08584, (S)-5-chloro-4-(4-chloro-1-methyl-1H-pyrazol-5-yl)-N-(1-(3,4-difluorophenyl)-3-(((1-(2-(2,4-dioxotetrahydropyrimidin-1(2H)-yl)-1,3-dioxoisoindolin-5-yl)piperidin-4-yl)methyl)amino)propan-2-yl) furan-2-carboxamide]?
A: Degradation of substrate protein AKT (substrate protein remaining %) (AKT): A (0%≤substrate protein remaining %≤80%); inhibition at 0.5 µM ([5]; 0.5 μM, read-out: Inhibition Rate at 0.5 μM (%)): 10 to 20%; inhibition at 2 µM ([5]; 2 μM, read-out: Inhibition Rate at 2 μM (%)): 53 to 60%

Q: `Cn1ncc(Cl)c1-c1cc(C(=O)N[C@@H](Cc2cccc(F)c2)CN2CCN(CC3CCN(c4ccc5c(c4)C(=O)N(N4CCC(=O)NC4=O)C5=O)CC3)CC2)sc1Cl` [GT-08586, (S)-5-chloro-4-(4-chloro-1-methyl-1H-pyrazol-5-yl)-N-(1-(4-((1-(2-(2,4-dioxotetrahydropyrimidin-1(2H)-yl)-1,3-dioxoisoindolin-5-yl)piperidin-4-yl)methyl)piperazin-1-yl)-3-(3-fluorophenyl)propan-2-yl)thiophene-2-carboxamide] was tested. Which “Degradation of substrate protein AKT (substrate protein remaining %)” value (AKT) did it give?
A: The value was “A (0%≤substrate protein remaining %≤80%)”.
